Article PMC10115881, “Disrupting the α-synuclein-ESCRT interaction with a peptide inhibitor mitigates neurodegeneration in preclinical models of Parkinson’s disease” (Nature Communications, 2023)

Key:
[1] = system: WT a-syn-mediated cytotoxicity in HEK293 cells; assay: Pooled lentiviral 7-mer peptide cytotoxicity screen, WT a-syn + MG132; type: cell-based, human;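 on Slope Norm Reads: reads normalized to total peptide reads per sample with scalar factor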
Description: We used a lentiviral library of 50,549 7-mer peptides enriched in PPI motifs[13] on a green fluorescent protein (GFP) scaffold (Fig. 1A). We infected cells in a pooled format and the amino acid sequence of each peptide served as its own barcode. By using a low multiplicity of infection followed by puromycin selection, each infected cell expressed one unique GFP-peptide. We screened for peptides that reduced a-syn-mediated cytotoxicity or a-syn oligomers in parallel (Fig. 1A). To cause cytotoxicity relevant to PD, we induced proteostatic stress in HEK293 cells by inhibiting the proteasome with MG132 and overexpressing human WT a-syn associated with idiopathic PD in one screen or the more toxic mutant A53T a-syn associated with familial PD in a second screen. This combination of a-syn overexpression and pharmacological proteasome inhibition led to death of most cells, with only those that expressed a protective peptide surviving. By extracting genomic DNA from the surviving cells and amplifying the peptide coding sequences, we identified the protective peptides (Fig. 1A). To detect a-syn oligomers, we used a protein fragment complementation assay (PCA) of a-syn oligomerization in HEK293 cells. In this assay, human A53T a-syn was fused to either the C- or N-terminal half of yellow fluorescent protein (YFP). No fluorescence is detectable while a-syn exists in monomers but, when a-syn oligomerizes, the two halves of YFP come in close enough proximity to form a functional, spontaneously fluorescent protein. […] Our screens yielded 10 hits (Table S1). The hit with the most reads (i.e., the most abundant) was the same peptide in all screens: IPIQLKA (named PDpep1) (Table S1). We validated the cytoprotective effects of PDpep1 in HEK293 cells overexpressing WT or A53T a-syn (Figs. 1B, S1A), as well as its ability to reduce WT or A53T a-syn oligomers in a luciferase-based PCA[18]–[20] compared to a scrambled control peptide (Figs. 1C, S1B).
HEK293T cells (ATCC, CRL-3216) were maintained in DMEM supplemented with 10% FBS and 1% pen/strep/glutamine, and the appropriate selection antibiotics when required. Lentiviruses were made in a 15 cm dish format by transfecting packaging cells (HEK293T) with a three-plasmid system (expression vector, psPAX2 and pMD2.G) and using Polyjet DNA transfection reagent (FroggaBio, SL100688.1). Viral transduction of HEK293T cells were performed with a multiplicity of infection (MOI) of 0.3. Infected cells were selected in puromycin-containing medium to eliminate uninfected cells and three aliquots of cells were collected for sampling of the initial (T0) cell population. Cells were treated with MG132 at concentrations of 0, 10, 25, or 50 µM. For the cell viability screen, surviving cells were collected and gDNA was extracted for identification of peptide inhibitors of cell toxicity. For the inhibition of a-syn aggregation screen, a protein fragment complementation assay (PCA) was used by transfecting cells with split YFP-a-syn constructs following stable expression of the peptides. Cells were sorted based on their YFP fluorescence intensities with a FACSVantage SE cell sorter (BD Bioscience) and gDNA was extracted for identification of peptides.
Genomic DNA (gDNA) from peptide expressing cells at different time-points was extracted using QIAamp DNA Blood Mini Kit. PCR amplifications of peptides from gDNA in parallel with the lentiviral plasmid library (naïve library) were performed using indexed Illumina PCR primers to incorporate both the Illumina adapter sequences and indexing sequences. Each 50 μl reaction contained 3.2 μg of template, 2× PCR buffer, 2× enhancer solution, 300 μM each dNTP, 900 nM each of Adapter A (5′-[…]-[…]-3′) and Adapter B (5′-[…]-[…]-3′), 1 mM MgSO4, 3.75 units of Platinum Pfx polymerase, and water to 50 μl. […]

pS129 a-syn puncta = assay: PFF-induced a-syn seeding, pS129 a-syn puncta in cortical neurons; type: cell-based, rat
Method: PFFs synthesized from recombinant human a-syn were added to primary neuronal cultures to seed recruitment of endogenous a-syn into pS129 a-syn^+ aggregates. Recombinant human a-syn PFFs were purchased from StressMarq Biosciences (SPR-322B). Cells were plated on poly-D-lysine coated glass coverslips in 24-well cell culture plates at a density of 5 × 10^5 cells/well, and incubated at 37 °C in 5% CO2 with half media changes every 3 days. […] On day 8 post-isolation, cells were treated with 1.5 µg of recombinant a-syn PFFs. […]
Confocal images of primary cortical neurons, iPSC-derived dopaminergic neurons, and LAMP1 staining within the SN were processed using Imaris software (Oxford instruments). […] Mean pixel intensity per GFP^+ cell (for experiments using GFP-tagged peptides) or RFP^+ cell (for experiments using RFP-tagged peptides) was calculated for a-syn or LAMP1 signal using the software’s surfaces module. The software’s surfaces module was used to identify GFP^+/NeuN^+ cells, and number of pS129 a-syn^+ puncta per GFP^+/NeuN^+ cortical neuron was counted using the software’s spots module. Mean pixel intensity per RFP^+/NeuN^+ cortical neuron was calculated for Rab7, cathepsin B, or cathepsin D signals using the software’s surfaces module. […]

Substance: IPIQLKA [PDpep1, initial screen hit peptide IPIQLKA]
- Reads 10M MG132 [1]: 1
- Reads 25M MG132 [1]: 1629
- Reads 50M MG132 [1]: 3375
- Slope Norm Reads [1]: 3.45
- Reads 0M MG132 ([1]; Illumina reads, average Phred >30): 90

Substance: DEEIERQLKALG [PDpep1.3]
- Effect on endogenous a-syn aggregates (pS129 a-syn puncta): reduced the number of endogenous a-syn aggregates
